Data set [1] has as its target T1, OATP2B1 (Homo sapiens, UniProt O94956).
T1 sequence (O94956 1-709): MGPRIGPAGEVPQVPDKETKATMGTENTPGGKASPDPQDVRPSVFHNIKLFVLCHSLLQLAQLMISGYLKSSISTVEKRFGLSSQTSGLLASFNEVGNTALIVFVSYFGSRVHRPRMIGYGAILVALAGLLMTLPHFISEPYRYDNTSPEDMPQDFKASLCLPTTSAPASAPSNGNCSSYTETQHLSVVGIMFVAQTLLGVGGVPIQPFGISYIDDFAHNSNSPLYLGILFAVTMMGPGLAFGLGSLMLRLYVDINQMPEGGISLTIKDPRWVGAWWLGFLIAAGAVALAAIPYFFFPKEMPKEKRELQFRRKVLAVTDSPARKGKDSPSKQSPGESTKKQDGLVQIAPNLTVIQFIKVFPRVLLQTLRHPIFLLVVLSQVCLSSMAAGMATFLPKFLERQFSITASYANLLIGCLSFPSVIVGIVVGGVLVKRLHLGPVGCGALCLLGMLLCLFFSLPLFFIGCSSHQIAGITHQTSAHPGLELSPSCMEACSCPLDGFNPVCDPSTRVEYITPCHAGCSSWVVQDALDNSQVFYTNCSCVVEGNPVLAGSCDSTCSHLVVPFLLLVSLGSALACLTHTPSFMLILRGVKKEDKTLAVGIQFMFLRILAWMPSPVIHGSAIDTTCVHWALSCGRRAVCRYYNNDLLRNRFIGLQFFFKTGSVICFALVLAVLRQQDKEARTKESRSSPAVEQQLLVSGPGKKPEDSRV
Put plainly: Uptake (intracellular accumulation) kinetics in ABCC2/OATP2B1 double-transfected MDCKII cells. The settings on record: cell line ABCC2-OATP2B1; intracellular accumulation of 3H-labeled substrate. Set-up: expressed in transfected cells; host or cells: MDCKII (canine kidney) ABCC2 single-transfectant, further transfected with pcDNA3.1/Hygro(-)-OATP2B1. In kind it is in vitro ADME. The method, then: (a) MDCKII cells were grown on ThinCerts (24-mm diameter, pore size 0.4 μm, pore density 1×10^8 per cm^2) and induced with butyrate as mentioned above. […] The ^3H-labeled substrate was dissolved in transport buffer and added either to the apical or to the basolateral compartment at the concentration indicated. After incubation at 37° C., the radioactivity in the opposite compartment was measured by sampling aliquots from the apical or basolateral compartment. Cells were washed 2 times with ice-cold transport buffer containing 0.5% bovine serum albumin and 3 times in ice-cold transport buffer. Intracellular accumulation of radioactivity was calculated by lyzing the cells with 0.2% sodium dodecyl sulfate (SDS) and measuring the radioactivity in the lysate.

In data set [2] the target is T1, OATP2B1. The settings on record: cRNA-injected Xenopus laevis oocytes; cited from earlier work.
For data set [3], the system named is OATP1B1, OATP1B3, and OATP2B1. The experiment in a line: Uptake (intracellular accumulation) kinetics in ABCC2/OATP1B1/1B3/2B1 quadruple-transfected MDCKII cells. In kind it is in vitro ADME, human. Particulars: for Km: human. The method, then: (a) MDCKII cells were grown on ThinCerts (24-mm diameter, pore size 0.4 μm, pore density 1×10^8 per cm^2) and induced with butyrate as mentioned above. The cells were washed in prewarmed (37° C.) transport buffer (142 mM NaCl, 5 mM KCl, 1 mM KH2PO4, 1.2 mM MgSO4, 1.5 mM CaCl2, 5 mM glucose, and 12.5 mM HEPES, pH 7.3). The ^3H-labeled substrate was dissolved in transport buffer and added either to the apical or to the basolateral compartment at the concentration indicated. After incubation at 37° C., the radioactivity in the opposite compartment was measured by sampling aliquots from the apical or basolateral compartment. Cells were washed 2 times with ice-cold transport buffer containing 0.5% bovine serum albumin and 3 times in ice-cold transport buffer. Intracellular accumulation of radioactivity was calculated by lyzing the cells with 0.2% sodium dodecyl sulfate (SDS) and measuring the radioactivity in the lysate.

Read-outs that look alike come from different tables or passages of the source. Bounds are passed on as bounds.

On to `O=C1OC(c2ccc(O)c(S(=O)(=O)O)c2)(c2ccc(O)c(S(=O)(=O)O)c2)c2c(Br)c(Br)c(Br)c(Br)c21` [Bromosulfophthalein], for which the Vmax is on record as 52.8 ± 8.6 pmol · mg protein^−1 · min^−1 on OATP2B1 [1] and 197.8 ± 3.0 pmol · mg protein^−1 · min^−1 in data set [3] (cell line ABCC2-OATP1B1/1B3/2B1 (quadruple-transfectant), intracellular accumulation of 3H-labeled substrate). The Michaelis constant (Km) is 0.7 µM at OATP2B1 [2]; 4.8 µM in data set [3] (pH 7.3, cell line ABCC2-OATP1B1/1B3/2B1 (quadruple-transfectant), intracellular accumulation of 3H-labeled substrate, read-out: Km); < 5 µM in data set [3] (pH 7.3, summary bound for the OATPs, referring to Table 1, read-out: Km values for the OATPs). Besides, the maximal velocity in data set [3] (ABCC2/OATP1B1/1B3/2B1 quadruple-transfectants) stood at 197.8 pmol×mg protein×min^−1.

The values are drawn from patent publication US20080038728A1, “Quadruple Transformed Cell Line Useful for the Identification of Transport Inhibitors” (priority 2004, published 2008).
